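In this assay, cells in 96-well plates receive the compound at five concentrations for 48 hours. Endpoints are linearly interpolated between the surrounding concentrations. The concentration for 50% growth inhibition is given as GI50. At the TGI there is no net growth.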
Tests used:
Experiment in all cases: NCI tumour cell line growth inhibition, 48 h
OVCAR-5 ovarian = tested on: OVCAR-5 ovarian
SW-620 colon = tested on: SW-620 colon
MDA-MB-435 = tested on: MDA-MB-435
OVCAR-8 ovarian = tested on: OVCAR-8 ovarian
COLO 205 colon = tested on: COLO 205 colon
KM12 colon = tested on: KM12 colon
NCI-H460 lung = tested on: NCI-H460 lung
MDA-MB-468 breast = tested on: MDA-MB-468 breast
OVCAR-3 ovarian = tested on: OVCAR-3 ovarian
UO-31 renal = tested on: UO-31 renal
UACC-257 melanoma = tested on: UACC-257 melanoma
NCI-H522 lung = tested on: NCI-H522 lung
SK-MEL-5 melanoma = tested on: SK-MEL-5 melanoma
HCT-15 colon = tested on: HCT-15 colon
NCI-H226 lung = tested on: NCI-H226 lung
SN12C renal = tested on: SN12C renal
ACHN renal = tested on: ACHN renal
UACC-62 melanoma = tested on: UACC-62 melanoma
MOLT-4 leukemia = tested on: MOLT-4 leukemia
RPMI-8226 leukemia = tested on: RPMI-8226 leukemia
SK-MEL-28 melanoma = tested on: SK-MEL-28 melanoma
SR leukemia = tested on: SR leukemia
K-562 leukemia = tested on: K-562 leukemia
A549 NSCLC = tested on: A549 NSCLC
LOX IMVI melanoma = tested on: LOX IMVI melanoma
DU-145 prostate = tested on: DU-145 prostate
SF-268 CNS = tested on: SF-268 CNS
BT-549 breast = tested on: BT-549 breast
CCRF-CEM leukemia = tested on: CCRF-CEM leukemia
HOP-62 NSCLC = tested on: HOP-62 NSCLC
M14 melanoma = tested on: M14 melanoma
MDA-MB-231 breast = tested on: MDA-MB-231 breast
SK-OV-3 ovarian = tested on: SK-OV-3 ovarian
HOP-92 NSCLC = tested on: HOP-92 NSCLC
786-0 renal = tested on: 786-0 renal
U251 CNS = tested on: U251 CNS
MCF7 breast = tested on: MCF7 breast
NCI/ADR-RES ovarian = tested on: NCI/ADR-RES ovarian
A498 renal = tested on: A498 renal
SNB-75 CNS = tested on: SNB-75 CNS
RXF 393 renal = tested on: RXF 393 renal
SNB-19 CNS = tested on: SNB-19 CNS
CAKI-1 renal = tested on: CAKI-1 renal
NCI-H23 lung = tested on: NCI-H23 lung
PC-3 prostate = tested on: PC-3 prostate
HL-60(TB) leukemia = tested on: HL-60(TB) leukemia
HT29 colon = tested on: HT29 colon
T-47D breast = tested on: T-47D breast
EKVX NSCLC = tested on: EKVX NSCLC
HS 578T breast = tested on: HS 578T breast
IGROV1 ovarian = tested on: IGROV1 ovarian
HCC-2998 colon = tested on: HCC-2998 colon
HCT-116 colon = tested on: HCT-116 colon
MALME-3M melanoma = tested on: MALME-3M melanoma
OVCAR-4 ovarian = tested on: OVCAR-4 ovarian
TK-10 renal = tested on: TK-10 renal
SK-MEL-2 melanoma = tested on: SK-MEL-2 melanoma
SF-539 CNS = tested on: SF-539 CNS
SF-295 CNS = tested on: SF-295 CNS

O=C(N/N=C/c1ccoc1)c1[nH]c2ccc(Br)cc2c1-c1ccccc1
GI50 (OVCAR-5 ovarian): 0.745 µM
TGI (OVCAR-5 ovarian): 14.6 µM
GI50 (SW-620 colon): 0.297 µM
TGI (SW-620 colon): 15.6 µM
GI50 (MDA-MB-435): 0.162 µM
TGI (MDA-MB-435): 0.827 µM
GI50 (OVCAR-8 ovarian): 0.369 µM
TGI (OVCAR-8 ovarian): 5.93 µM
GI50 (COLO 205 colon): 0.43 µM
TGI (COLO 205 colon): 3.14 µM
GI50 (KM12 colon): 0.461 µM
TGI (KM12 colon): 13.5 µM
GI50 (NCI-H460 lung): 0.252 µM
TGI (NCI-H460 lung): 10.7 µM
GI50 (MDA-MB-468 breast): 0.346 µM
TGI (MDA-MB-468 breast): 3.88 µM
GI50 (OVCAR-3 ovarian): 0.257 µM
TGI (OVCAR-3 ovarian): 11.5 µM
GI50 (UO-31 renal): 1.01 µM
TGI (UO-31 renal): 15.2 µM
GI50 (UACC-257 melanoma): 7.66 µM
TGI (UACC-257 melanoma): 23.3 µM
GI50 (NCI-H522 lung): 0.208 µM
TGI (NCI-H522 lung): 1 µM
GI50 (SK-MEL-5 melanoma): 0.295 µM
TGI (SK-MEL-5 melanoma): 1.67 µM
GI50 (HCT-15 colon): 0.328 µM
TGI (HCT-15 colon): 11.9 µM
GI50 (NCI-H226 lung): 3.04 µM
TGI (NCI-H226 lung): 16.2 µM
GI50 (SN12C renal): 0.485 µM
TGI (SN12C renal): 12.1 µM
GI50 (ACHN renal): 0.79 µM
TGI (ACHN renal): 14.4 µM
GI50 (UACC-62 melanoma): 0.355 µM
TGI (UACC-62 melanoma): 15.8 µM
GI50 (MOLT-4 leukemia): 0.405 µM
TGI (MOLT-4 leukemia): 21 µM
GI50 (RPMI-8226 leukemia): 0.36 µM
TGI (RPMI-8226 leukemia): 33.2 µM
GI50 (SK-MEL-28 melanoma): 2.75 µM
TGI (SK-MEL-28 melanoma): 19.9 µM
GI50 (SR leukemia): 0.492 µM
TGI (SR leukemia): 36.9 µM
GI50 (K-562 leukemia): 0.197 µM
TGI (K-562 leukemia): > 56.2 µM
GI50 (A549 NSCLC): 1.13 µM
TGI (A549 NSCLC): 14.7 µM
GI50 (LOX IMVI melanoma): 0.265 µM
TGI (LOX IMVI melanoma): 13.7 µM
GI50 (DU-145 prostate): 0.568 µM
TGI (DU-145 prostate): 12.4 µM
GI50 (SF-268 CNS): 1.2 µM
TGI (SF-268 CNS): 14.5 µM
GI50 (BT-549 breast): 0.416 µM
TGI (BT-549 breast): 3.12 µM
GI50 (CCRF-CEM leukemia): 0.227 µM
TGI (CCRF-CEM leukemia): 15.3 µM
GI50 (HOP-62 NSCLC): 0.524 µM
TGI (HOP-62 NSCLC): 17.6 µM
GI50 (M14 melanoma): 0.226 µM
TGI (M14 melanoma): 14.7 µM
GI50 (MDA-MB-231 breast): 0.906 µM
TGI (MDA-MB-231 breast): 12.3 µM
GI50 (SK-OV-3 ovarian): 3.54 µM
TGI (SK-OV-3 ovarian): 18.4 µM
GI50 (HOP-92 NSCLC): 0.989 µM
TGI (HOP-92 NSCLC): 13.3 µM
GI50 (786-0 renal): 0.665 µM
TGI (786-0 renal): 14.4 µM
GI50 (U251 CNS): 1.16 µM
TGI (U251 CNS): 15.6 µM
GI50 (MCF7 breast): 0.21 µM
TGI (MCF7 breast): 12.7 µM
GI50 (NCI/ADR-RES ovarian): 0.231 µM
TGI (NCI/ADR-RES ovarian): 1.31 µM
GI50 (A498 renal): 15.6 µM
TGI (A498 renal): 30.2 µM
GI50 (SNB-75 CNS): 0.299 µM
TGI (SNB-75 CNS): 13.2 µM
GI50 (RXF 393 renal): 0.455 µM
TGI (RXF 393 renal): 19.8 µM
GI50 (SNB-19 CNS): 3.15 µM
TGI (SNB-19 CNS): 20 µM
GI50 (CAKI-1 renal): 0.537 µM
TGI (CAKI-1 renal): 15.4 µM
GI50 (NCI-H23 lung): 0.728 µM
TGI (NCI-H23 lung): 14.2 µM
GI50 (PC-3 prostate): 0.436 µM
TGI (PC-3 prostate): 16 µM
GI50 (HL-60(TB) leukemia): 0.205 µM
TGI (HL-60(TB) leukemia): 0.852 µM
GI50 (HT29 colon): 0.329 µM
TGI (HT29 colon): 2.92 µM
GI50 (T-47D breast): 3.77 µM
TGI (T-47D breast): 32.5 µM
GI50 (EKVX NSCLC): 1.03 µM
TGI (EKVX NSCLC): 13.6 µM
GI50 (HS 578T breast): 0.279 µM
TGI (HS 578T breast): 13 µM
GI50 (IGROV1 ovarian): 1.25 µM
TGI (IGROV1 ovarian): 13 µM
GI50 (HCC-2998 colon): 0.755 µM
TGI (HCC-2998 colon): 11.6 µM
GI50 (HCT-116 colon): 0.166 µM
TGI (HCT-116 colon): 11.1 µM
GI50 (MALME-3M melanoma): 5.25 µM
TGI (MALME-3M melanoma): 21.4 µM
GI50 (OVCAR-4 ovarian): 5.23 µM
TGI (OVCAR-4 ovarian): 20.9 µM
GI50 (TK-10 renal): 7.96 µM
TGI (TK-10 renal): 24 µM
GI50 (SK-MEL-2 melanoma): 0.954 µM
TGI (SK-MEL-2 melanoma): 16.4 µM
GI50 (SF-539 CNS): 0.246 µM
TGI (SF-539 CNS): 1.08 µM
GI50 (SF-295 CNS): 0.289 µM
TGI (SF-295 CNS): 13 µM
